Common to all, as to assay: NCI-60 cell line screen, 48 h
Assay [1] deals with HCC-2998 colon.
In assay [2] the test system is HL-60(TB) leukemia.
The test system of assay [3] is HOP-62 NSCLC.
In assay [4] the test system is HS 578T breast.
Assay [5] concerns OVCAR-4 ovarian.
The subject of assay [6] is OVCAR-8 ovarian.
Assay [7] relates to SK-MEL-2 melanoma.
Assay [8] concerns SK-MEL-5 melanoma.
For assay [9], the system named is SNB-75 CNS.
The test system of assay [10] is T-47D breast.

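Values below derive from 48-hour exposures of cells grown in 96-well plates, with endpoints linearly interpolated between the two concentrations bracketing the appropriate inhibition level. GI50 is the concentration that inhibits growth by half. TGI denotes the concentration required for complete inhibition of growth.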 Some results are limits rather than exact numbers.

Consider `Cc1ccc(S(=O)(=O)N/N=C2\C3CC4CC(C3)C2C4)cc1` (configuration not stated), for which the TGI in assay [1], in [2], in assay [3], in [4], in [5] and in [6] was greater than 100 µM in each case. In addition, the TGI in [7], in [8], in assay [9] and in assay [10] was greater than 100 µM in each case.

In the case of `COc1ccc(C(=O)c2ccc(-n3cc(/C=C/[N+](=O)[O-])c4ccccc43)cc2)cc1`, the TGI in assay [1] was 48.9 µM; in assay [2] it was 44.6 µM; in [3], 35.4 µM; in assay [4], 19.9 µM; in assay [5] it was greater than 100 µM; in assay [6], 45.2 µM. Also, the TGI in [7] was 58 µM; in [8] it was greater than 61.9 µM; in assay [9] it was greater than 100 µM; in assay [10] it was 6.41 µM.

Regarding `CC1=C2NCN(C)N=C2C(C#N)(C#N)C1(C#N)C#N`, the TGI in [1] was 44.4 µM; in assay [2], 4.84 µM; in assay [3], greater than 100 µM; in assay [4] it was greater than 96.3 µM; in assay [5], 34.8 µM; in assay [6], greater than 58.2 µM. Moreover, the TGI in [7] was greater than 100 µM; in assay [8] it was greater than 71.4 µM; in [9], greater than 87.9 µM; in [10], 59 µM.

As to `CC(C)C1CC(CO)(CNc2cc(Cl)nc(N)n2)C1` (configuration not stated), the TGI in assay [1], in [2], in assay [3], in assay [4], in assay [5] and in [6] was greater than 100 µM each time. Moreover, the values for the TGI in assay [7], in assay [8] and in assay [10] were greater than 100 µM, 40.8 µM and 87.9 µM, respectively.

For `COC(=O)c1ccc(/C=C2\CCc3ccccc3C2=O)cc1`, the TGI in [1], in [2], in [3], in assay [4], in [5] and in assay [6] was greater than 100 µM throughout. Also, the TGI in [8], in assay [9] and in [10] was greater than 100 µM in each case.

As for `CC(=O)c1ccc(NC(=O)CSc2nc(C)nc3c2sc(=S)n3-c2ccccc2)cc1`, the TGI in assay [1] is greater than 3.16 µM; in [2], greater than 3.16 µM; in assay [3] it was greater than 3.16 µM; in assay [4], greater than 3.16 µM; in [5], greater than 3.16 µM; in assay [6], greater than 10 µM. In addition, the TGI in assay [7], in [8], in [9] and in [10] was greater than 3.16 µM throughout.

On to `c1ccc([P+](c2ccccc2)(c2ccccc2)c2ccc([P+](c3ccccc3)(c3ccccc3)c3ccccc3)cc2)cc1`, for which the TGI in assay [2], in [3], in [4], in assay [6], in [7] and in assay [8] was greater than 100 µM throughout. Also, the TGI in assay [9] and in assay [10] was greater than 100 µM throughout.

For the compound `O=c1oc2ccc(Cl)cc2cc1-c1cn2ccsc2n1`, the TGI in [1] is greater than 100 µM; in [2], 85.1 µM; in assay [3], greater than 100 µM; in assay [4] it was greater than 100 µM; in [5], greater than 100 µM; in [6], 96.8 µM. The TGI in assay [7], in assay [8], in assay [9] and in [10] was greater than 100 µM throughout.

As to `Nc1ncc(/C=N/O)c(NCC2(CO)CC(CCc3ccccc3)C2)n1` (configuration not stated), the TGI in [1] is 30.4 µM; in [2] it was 28 µM; in assay [3], 24.8 µM; in assay [4] it was greater than 100 µM; in [5], 48.5 µM; in [6], 24.1 µM. Also, the TGI stood at 39.2 µM in assay [7], 11.9 µM in [8], 30.8 µM in [9] and 17.2 µM in assay [10].

As to `CC/C(Cl)=N\OC(=O)Nc1ccc(F)cc1F`, the TGI in assay [1] is 36.7 µM; in assay [2], 4.31 µM; in [3] it was 46.1 µM; in assay [4], greater than 69.5 µM; in assay [5], 34.8 µM; in [6] it was 37.3 µM. The TGI was 33.1 µM in assay [7], 20.6 µM in assay [8], 47.1 µM in assay [9] and 15.5 µM in [10].

Turning to `O=S1(=O)CCN(c2ccccc2CC(c2c[nH]c3ccccc23)c2c[nH]c3ccccc23)CC1`, the TGI is 8.09 µM in [1]; 12.7 µM in assay [2]; 35.7 µM in assay [3]; 42.7 µM in assay [4]; greater than 63.7 µM in assay [5]; 39.7 µM in [6]. Besides, the TGI was 21.1 µM in [7], 19.8 µM in assay [8], 23.6 µM in assay [9] and greater than 100 µM in [10].

As for `COc1cc(-n2cc(-c3cc(O)c(C/C=C(\C)CCC=C(C)C)c(O)c3)nn2)cc2c1O[C@]1(C)CC[C@@H](O)C(C)(C)[C@H]1C2`, the GI50 in assay [1] is 2.45 µM; in [2], 0.0655 µM; in assay [3] it was 0.564 µM; in assay [4] it was 0.0452 µM; in assay [5] it was 3.13 µM; in assay [6] it was 3.17 µM. Also, the GI50 in assay [7] is 0.672 µM; in assay [8], 1.33 µM; in [9] it was 0.208 µM; in assay [10], 1.34 µM. The TGI in assay [1] is 19 µM; in assay [2], 3.88 µM; in assay [3], 12.7 µM; in [4], 3.41 µM; in assay [5] it was 41.6 µM; in [6] it was greater than 66.4 µM. Also, the TGI in assay [7] worked out at 11.5 µM; in assay [8], 5.77 µM; in [9] it was 15 µM; in assay [10] it was 47.2 µM.

Turning to `CC1=C2C(=O)c3ccccc3C(=O)[C@H]2C[C@@H](N2CCCCCC2=O)O1`, the TGI in [1] was 31.4 µM; in assay [2], 46.3 µM; in assay [3] it was 33 µM; in [4], greater than 100 µM; in assay [5] it was 32.1 µM; in [6], 40.3 µM. Also, the TGI in [7] was determined as 40 µM; in assay [8] it was 29.6 µM; in assay [9] it was 45.1 µM; in assay [10] it was 42.3 µM.

On to `NC(=O)C1=CC2C3C=CC2(O)C(=O)OC3O1` (configuration not stated), for which the TGI in assay [1] came to 26.7 µM; in assay [2], 10.5 µM; in assay [3], 29.9 µM; in assay [4] it was 5.57 µM; in assay [5] it was 13.2 µM; in assay [6], 6.66 µM. In addition, the TGI is greater than 40.2 µM in assay [7], 6.32 µM in assay [8], 29.4 µM in assay [9] and 15.1 µM in [10].

With `CC12CC(c3ccccc3O1)C(C(=O)Nc1cccc(F)c1)C(=O)N2` (configuration not stated), the TGI in assay [1] is greater than 100 µM; in assay [2], greater than 100 µM; in assay [3], greater than 100 µM; in assay [4], greater than 100 µM; in assay [5], greater than 100 µM; in assay [6], 80.6 µM. In addition, the TGI is greater than 100 µM in assay [7], 54.8 µM in assay [8] and 89.2 µM in assay [10].

Regarding `O=P(O)(O)CN1CCNCCN(CP(=O)(O)O)CCNCC1`, the TGI in assay [1] is greater than 100 µM; in assay [2], 15.2 µM; in [3] it was greater than 100 µM; in [4] it was greater than 100 µM; in assay [5], greater than 100 µM; in assay [6] it was greater than 83.6 µM. The TGI in assay [7] was greater than 100 µM; in assay [8], greater than 42 µM; in [9], greater than 100 µM; in assay [10], greater than 100 µM.

`O=C(/C=C/c1ccco1)c1cccc(C(=O)/C=C/c2ccco2)n1`: the TGI in assay [1] was greater than 100 µM; in assay [2], 0.417 µM; in assay [3] it was greater than 88.6 µM; in assay [4], greater than 28.4 µM; in [5], greater than 100 µM; in assay [6] it was 8.83 µM. The TGI in [7] was greater than 58.6 µM; in assay [8] it was greater than 100 µM; in [9] it was greater than 100 µM; in assay [10], greater than 100 µM.

In the case of `COC(=O)c1c(OC)cc2cc3c(c(O)c2c1C)C(=O)C1(O)C(=O)C=C(OC)C(OC(=O)CC(C)N)=C1C3=O` (configuration not stated), the TGI in [1] is 87.9 µM; in assay [2], 50.8 µM; in assay [3], greater than 100 µM; in assay [4], 96.6 µM; in [5], 90.1 µM; in assay [6], 92.9 µM. Also, the TGI in assay [7] is greater than 100 µM; in assay [8], greater than 100 µM; in [9], 18 µM; in assay [10] it was greater than 100 µM.

Turning to `O=C1CC2(CCNCC2)C(=O)N1N1CCOCC1`, the TGI in assay [1], in [2], in assay [3], in [4], in assay [5] and in assay [6] was greater than 100 µM in each case. For the same compound, the TGI in assay [7], in assay [8], in [9] and in assay [10] was greater than 100 µM in each case.

Turning to `CCOC(=O)/C(C#N)=C/N(CC)/N=C/c1ccccc1`, the TGI in assay [1], in assay [2], in assay [4], in assay [5], in assay [6] and in [7] was greater than 100 µM each time. For the same compound, the TGI in assay [8], in assay [9] and in assay [10] was greater than 100 µM throughout.

`C=C1CC(Cn2cc(Br)c(=O)[nH]c2=O)(c2ccc(-c3ccccc3)cc2)OC1=O` (configuration not stated): the TGI in assay [1] is 3.21 µM; in assay [3], 19.3 µM; in assay [4], greater than 20.5 µM; in assay [5], 4.64 µM; in assay [6], 4.29 µM; in [7], 3.26 µM. Besides, the TGI in [8] is 2.55 µM; in assay [9] it was 17.6 µM; in [10] it was 4.87 µM.

Regarding `O=CNNC(=O)Nc1ccc(Cl)cc1`, the TGI in [1], in [2], in assay [3], in [4], in [5] and in assay [6] was greater than 100 µM in each case. Also, the TGI in [8], in [9] and in assay [10] was greater than 100 µM in each case.

As to `COC1=CC(=O)C2=C(C1=O)[C@H]1CC[C@]3(C)[C@@H](OC(C)=O)CC[C@H]3[C@@H]1CC2`, the TGI is 40.4 µM in [2]; greater than 100 µM in assay [3]; greater than 100 µM in assay [4]; 30.6 µM in [5]; 53.9 µM in [6]; greater than 100 µM in assay [7]. The TGI in assay [8] was 48.8 µM; in assay [9] it was greater than 100 µM; in [10], 49.4 µM.

Consider `O=[N+]([O-])/C=C/c1cn(CCCCCn2cc(/C=C/[N+](=O)[O-])c3ccccc32)c2ccccc12`, for which the TGI was found to be 2.8 µM in [1]; 2.5 µM in assay [2]; 10.6 µM in assay [3]; 7.99 µM in assay [4]; 7.1 µM in [5]; 16.5 µM in assay [6]. For the same compound, the results for the TGI in [7], in assay [8] and in assay [10] were 38.1 µM, 3.46 µM and greater than 100 µM, respectively.

For `CC12CC(C/C1=N/O)C(C)(C)C2` (configuration not stated), the TGI in assay [1], in assay [2], in [3], in [4], in assay [5] and in assay [6] was greater than 100 µM each time. Moreover, the TGI in [8], in [9] and in assay [10] was greater than 100 µM throughout.

As for `CNc1ccc(S(=O)Nc2ccccc2)cc1` (configuration not stated), the TGI in assay [1], in assay [2], in [3], in [4], in [5] and in [6] was greater than 100 µM throughout. Moreover, the TGI was greater than 100 µM in assay [7], 91.1 µM in [8] and 49.5 µM in [10].

Take `COc1ccc(C=Nc2ccc(-c3nc4ccccc4[nH]3)cc2)cc1OC`: the TGI in [2], in assay [3], in assay [4], in [5], in [6] and in assay [7] was greater than 100 µM in each case. Moreover, the TGI in assay [8] is greater than 100 µM; in assay [9], 52.3 µM; in assay [10], greater than 100 µM.

For the origin of these results see PubChem BioAssay (NCI).
